Assay results published in PMC10599528, “GPC-100, a novel CXCR4 antagonist, improves in vivo hematopoietic cell mobilization when combined with propranolol” (PLOS ONE, 2023).
Like-named read-outs stand apart in the source and are kept apart here.

Assays:
CXCR4 and β2AR = experiment: Calcium flux in MDA-MB-231 cells endogenously expressing CXCR4 and β2AR, CXCL12 plus epinephrine; type: cell-based; settings: 10 μM of each antagonist; 200 nM CXCL12, 10 μM epinephrine
Description: MDA-MB-231 cells endogenously expressing CXCR4 and β2AR, or transduced with adenoviruses encoding CXCR4 for overexpression were used for calcium flux. Cells were cultured for 2 days prior to running the assay and seeded at 8×10^4 cells/well in a 96-well black clear-bottom microplate. The following day, cells were stained with Cal-520 AM (AAT Bioquest) for 2 h at 37°C and treated with antagonists for 30 min followed by agonist stimulation. Intracellular calcium flux was measured using a Flexstation 3 microplate reader (Molecular Devices).

U937 cells = experiment: CXCL12-mediated transwell migration of U937 cells; settings: Homo sapiens, U-937, 24 h, read-out: IC50, blockade of CXCL12-mediated migration
Description: (§1) Cells were allowed to migrate toward CXCL12 in the presence or absence of the antagonists for 4 h (MM.1S) or 24 h (U937) at 37°C. The migration of U937 cells was measured using PrestoBlue Cell Viability Reagent (Invitrogen). For MM.1S cell line, the migrated cells were counted by flow cytometry. The fluorescence intensity (560 nm/590 nm excitation/emission) was detected using a Varioskan LUX Multimode Microplate Reader.
MM.1S (A) or U937 (B) cells were
(§2) suspended in serum-free media containing 0.5% BSA at 5X106 cells/ml and 100 μl of cell
(§3) suspension was added to transwell insert. SDF-1/CXCL12 at the indicated concentrations in 800
(§4) μl of serum-free media containing 0.5% BSA was added to the lower chamber of the transwell.
(§5) The transwell insert with 100 μl cell suspension was put on the lower chamber very carefully
(U937) to allow cell migration.

circulating WBCs [1] = experiment: In vivo WBC mobilization to peripheral blood (CBC analysis); set-up: species or system C57BL/6J mice
Description: Studies were performed at a facility accredited by the Association for Assessment and Accreditation of Laboratory Animal Care and in strict accordance with the recommendations in the Guide for the Care and Use of Laboratory Animals of the National Institute of Health. […] C57BL/6J mice (female, 6–9 weeks old) were ordered from Jackson Laboratories and allowed to habituate for one week before handling. They were housed 5 per cage and had free access to food and water.
Mice were monitored daily and weighed prior to drug administration. Based on the body weight data, mice were randomized into groups using the randomization tool in Benchling Studies randomization software. PB was collected by submental bleeding (non-terminal) or cardiac puncture (terminal). For terminal blood collections, mice were placed in an induction chamber with 2.5–4% isoflurane and then a maintenance dose of 2–3% through a nose cone. A toe pinch on all four quadrants was applied to confirm the surgical plane of anesthesia. Upon completion of terminal blood collection from cardiac puncture, the mice were euthanized via cervical dislocation while still under the effects of isoflurane. Approximately 25 μL blood was used for CBC analysis and the remaining blood was processed for flow cytometry or colony forming unit (CFU) assay. For non-terminal submental bleeding, a 4mm lancet was used to puncture the linguofacialis vein under the chin. […] For the time-course of mobilization, each mouse was bled twice. Submental bleeding was performed at 0.5 h, 1 h or 2 h after the respective dosing and cardiac puncture was performed at 3 h, 4 h and 6 h post-dose.
Blood samples were processed for complete blood count (CBC) analysis using the Abaxis VetScan HM5 hematology analyzer (Abaxis), which reports 18-parameters including WBC, lymphocytes, neutrophils, monocytes, platelets, hemoglobin, RBC and morphology.

circulating WBCs [2] = settings: mice, 5 mg/kg SC; cited from earlier work
MM.1S cells = experiment: CXCL12-induced transwell migration of MM.1S cells; settings: Homo sapiens, MM1.S, 4 h, read-out: IC50, blockade of CXCL12-induced migration
Description: as §1
MM.1S (A) or U937 (B) cells were
as §2, §3, §4, §5
(U937) to allow cell migration.

CD34+ cells = settings: at least; cited from earlier work

IC50 (U937 cells) | IC50 (MM.1S cells) | Molecule | inhibition of synergistic calcium flux induced by CXCL12 and epinephrine (CXCR4 and β2AR) | increase in circulating WBCs compared to the vehicle (circulating WBCs [1]; 1 hour post-drug, GPC-100 30 mg/kg IV, AMD3100 5 mg/kg SC, single injection) | time of peak mobilization (circulating WBCs [1]; time-course 30 min to 6 hours post-drug, GPC-100 30 mg/kg IV, AMD3100 5 mg/kg SC) | time of peak mobilization (circulating WBCs [2]) | increase in WBC mobilization (circulating WBCs [1]; G-CSF 0.1 mg/kg SC BID days 2-6, propranolol 20 mg/kg IP 7 days, GPC-100 30 mg/kg IV or AMD3100 5 mg/kg SC day 7) | MM patients in whom an optimal number of HSC is not mobilized (CD34+ cells)
 |  | CC(C)NCC(O)COc1cccc2ccccc12 (stereo not drawn) [propranolol] | partially inhibited |  |  |  |  | 
42 nM | 80 nM | c1cc(CN2CCCNCCNCCCNCC2)ccc1CN1CCCNCCNCCCNCC1 [AMD3100] | partially inhibited | 3 fold | 2 h | 1 h |  | 
 |  | G-CSF: Granulocyte-colony stimulating factor; recombinant murine G-CSF in the mouse studies (protein, UniProt P09920 31-208, looked up) Granulocyte …: VPLVTVSALPPSLPLPRSFLLKSLEQVRKIQASGSVLLEQLCATYKLCHPEELVLLGHSLGIPKASLSGCSSQALQQTQCLSQLHSGLCLYQGLLQALSGISPALAPTLDLLQLDVANFATTIWQQMENLGVAPTVQPTQSAMPAFTSAFQRRAGGVLAISYLQGFLETARLALHHLA |  |  |  |  | 4.5 fold | 40–50%
